Measured values published in patent US20150164866A1, “METHODS OF ADMINISTERING RIFAXIMIN FOR WEIGHT LOSS AND TREATMENT OF OBESITY” (Salix Pharmaceuticals, Ltd, priority 2012, published 2015).

What was measured:
[1] = Pilot randomized placebo-controlled study of weight loss in obese patients (BMI>30); format: in vivo, human
Source text: (§1) Patients were followed for up to six months. The primary endpoint was weight loss at the end of the study. Laboratory assessments including a basic metabolic panel, liver enzymes, lipid profile, and HbA1c (glucose testing) were obtained pre- and post-treatment.
(§2) Baseline demographic characteristics included median age of 45 (range 18-62) years, gender (73% female) average starting weight of 238.5±77.1 lbs and BMI of 38.8±9.7. Common co-morbidities included GERD (37%), hypertension (32%), diabetes (19%), and lipid disorders (14%). […] Weight loss in the rifaximin group was statistically significant (P<0.03) when compared to baseline weight. Diabetics tended to lose more weight (−6.1 lbs), and patients with underlying lipid disorders lost the least (−0.7 lbs).

[2] = Laboratory assessments (lipid profile) pre- and post-treatment in obese patients; format: in vivo, human; settings: RFX vs. PBO, p<0.04; 550 mg twice daily for 20 days
Source text: as §1, §2

[3] = tested on: species of Staphylococcus, Streptococcus, Enterococcus, and Enterobacteriaceae; settings: in vitro data; cited from earlier work

Compound: COC1/C=C/OC2(C)Oc3c(C)c(O)c4c(O)c(c5c(nc6cc(C)ccn65)c4c3C2=O)NC(=O)/C(C)=C\C=C\C(C)C(O)C(C)C(O)C(C)C(OC(C)=O)C1C (stereo not shown) [RFX]
- mean weight lost ([1]; first study visit following treatment, 550 mg twice daily for 20 days, patients with BMI>30): 1.1 lbs
- mean weight lost at the end of the study ([1]; mean follow-up of 4.9 months, 550 mg twice daily for 20 days, P<0.03 compared to baseline weight): 4.5 lbs
- weight loss as compared to placebo patients ([1]; obese patients (BMI>30), pilot study): greater weight loss
- weight change in diabetics ([1]; subgroup: diabetics, 550 mg twice daily for 20 days): −6.1 lbs
- weight change in patients with underlying lipid disorders ([1]; subgroup: underlying lipid disorders, 550 mg twice daily for 20 days): −0.7 lbs
- Triglycerides difference pre- to post-treatment [2]: +15.9
- antibacterial activity in vitro [3]: active
